The source made the active and inactive calls. The rule behind the calls is not given here.
System: CCRIS mutagenicity, Ames/micronucleus/aberration tests
Assay: CCRIS mutagenicity studies
[1] = Test System: AMES SALMONELLA TYPHIMURIUM, Strain/Indicator: TA97, Metabolic Activation: HAMSTER, LIVER, S-9, AROCLOR 1254 (10 OR 30%), Method: PREINCUBATION
[2] = Test System: AMES SALMONELLA TYPHIMURIUM, Strain/Indicator: TA97, Metabolic Activation: NONE, Method: PREINCUBATION
[3] = Test System: AMES SALMONELLA TYPHIMURIUM, Strain/Indicator: TA97, Metabolic Activation: RAT, LIVER, S-9, AROCLOR 1254 (10 OR 30%), Method: PREINCUBATION
[4] = Test System: AMES SALMONELLA TYPHIMURIUM, Strain/Indicator: TA98, Metabolic Activation: HAMSTER, LIVER, S-9, AROCLOR 1254 (10 OR 30%), Method: PREINCUBATION
[5] = Test System: AMES SALMONELLA TYPHIMURIUM, Strain/Indicator: TA98, Metabolic Activation: NONE, Method: PREINCUBATION
[6] = Test System: AMES SALMONELLA TYPHIMURIUM, Strain/Indicator: TA98, Metabolic Activation: RAT, LIVER, S-9, AROCLOR 1254 (10 OR 30%), Method: PREINCUBATION
[7] = Test System: AMES SALMONELLA TYPHIMURIUM, Strain/Indicator: TA100, Metabolic Activation: HAMSTER, LIVER, S-9, AROCLOR 1254 (10 OR 30%), Method: PREINCUBATION
[8] = Test System: AMES SALMONELLA TYPHIMURIUM, Strain/Indicator: TA100, Metabolic Activation: NONE, Method: PREINCUBATION
[9] = Test System: AMES SALMONELLA TYPHIMURIUM, Strain/Indicator: TA100, Metabolic Activation: RAT, LIVER, S-9, AROCLOR 1254 (10 OR 30%), Method: PREINCUBATION
[10] = Test System: AMES SALMONELLA TYPHIMURIUM, Strain/Indicator: TA1535, Metabolic Activation: HAMSTER, LIVER, S-9, AROCLOR 1254 (10 OR 30%), Method: PREINCUBATION
[11] = Test System: AMES SALMONELLA TYPHIMURIUM, Strain/Indicator: TA1535, Metabolic Activation: NONE, Method: PREINCUBATION
[12] = Test System: AMES SALMONELLA TYPHIMURIUM, Strain/Indicator: TA1535, Metabolic Activation: RAT, LIVER, S-9, AROCLOR 1254 (10 OR 30%), Method: PREINCUBATION
[13] = Test System: AMES SALMONELLA TYPHIMURIUM, Strain/Indicator: TA98, Metabolic Activation: NONE, Method: STANDARD PLATE
[14] = Test System: AMES SALMONELLA TYPHIMURIUM, Strain/Indicator: TA100, Metabolic Activation: NONE, Method: STANDARD PLATE

SMILES: O=S(=O)(O)c1ccccc1
- mutagenic call [1]: inactive; negative
- mutagenic call [2]: inactive; negative
- mutagenic call [3]: inactive; negative
- mutagenic call [4]: inactive; negative
- mutagenic call [5]: inactive; negative
- mutagenic call [6]: inactive; negative
- mutagenic call [7]: inactive; negative
- mutagenic call [8]: inactive; negative
- mutagenic call [9]: inactive; negative
- mutagenic call [10]: inactive; negative
- mutagenic call [11]: inactive; negative
- mutagenic call [12]: inactive; negative

SMILES: C=CC1(C)CO1 (stereo unspecified)
- mutagenic call (End Point: IN VIVO MICRONUCLEUS, Test System: BONE MARROW POLYCHROMATIC ERYTHROCYTES, Species: MOUSE, Strain/Sex: C57/BL/MALE, Route: INTRAPERITONEAL INJECTION): active; positive
- mutagenic call [13]: inactive; negative
- mutagenic call [14]: inactive; negative

SMILES: Nc1cc(N)cc(C(=O)O)c1
- mutagenic call (End Point: IN VITRO CHROMOSOMAL ABERRATIONS, Test System: CHL CELLS, Metabolic Activation: RAT, LIVER, S-9, SODIUM PHENOBARBITAL AND 5,6-BENZOFLAVONE): inactive; negative
- mutagenic call (End Point: IN VITRO MICRONUCLEUS, Test System: CHL/IU CELLS, Metabolic Activation: RAT, LIVER, S-9, PHENOBARBITAL AND 5,6-BENZOFLAVONE): inactive; negative
- mutagenic call (Test System: UDS RODENT HEPATOCYTES, Strain/Indicator: THY INCORP (NON-S-PHASE), Metabolic Activation: NONE, Method: AUTORADIOGRAPHY): active; positive

SMILES: O=[N+]([O-])c1ccc2snc(Cl)c2c1
- mutagenic call [14]: active; positive

SMILES: O=[N+]([O-])c1ccc2cccc3c2c1C=C3
- mutagenic call [13]: active; positive

SMILES: CS(=O)(=O)c1ccc(O)c(N)c1
- mutagenic call [1]: inactive; negative
- mutagenic call [2]: inactive; negative
- mutagenic call [3]: inactive; negative
- mutagenic call [4]: inactive; negative
- mutagenic call [5]: inactive; negative
- mutagenic call [6]: inactive; negative
- mutagenic call [7]: inactive; negative
- mutagenic call [8]: inactive; negative
- mutagenic call [9]: inactive; negative
- mutagenic call [10]: inactive; negative
- mutagenic call [11]: inactive; negative
- mutagenic call [12]: inactive; negative
- mutagenic call (Test System: AMES SALMONELLA TYPHIMURIUM, Strain/Indicator: TA1537, Metabolic Activation: HAMSTER, LIVER, S-9, AROCLOR 1254 (10 OR 30%), Method: PREINCUBATION): inactive; negative
- mutagenic call (Test System: AMES SALMONELLA TYPHIMURIUM, Strain/Indicator: TA1537, Metabolic Activation: NONE, Method: PREINCUBATION): inactive; negative
- mutagenic call (Test System: AMES SALMONELLA TYPHIMURIUM, Strain/Indicator: TA1537, Metabolic Activation: RAT, LIVER, S-9, AROCLOR 1254 (10 OR 30%), Method: PREINCUBATION): inactive; negative

SMILES: CC(=O)OCc1c2ccccc2c(C)c2ccccc12
- mutagenic call [13]: active; positive
- mutagenic call [14]: active; positive

SMILES: CCN(CC)c1ccc(/C=C/C2=[N+](C)c3ccccc3C2(C)C)cc1
- mutagenic call (Test System: Ames Salmonella typhimurium, Strain/Indicator: TA98, Metabolic Activation: None, Method: Preincubation): inactive; negative
- mutagenic call (Test System: Ames Salmonella typhimurium, Strain/Indicator: TA98, Metabolic Activation: Rat, Liver, S-9, Aroclor 1254, Method: Preincubation): inactive; negative
- mutagenic call (Test System: Ames Salmonella typhimurium, Strain/Indicator: TA100, Metabolic Activation: None, Method: Preincubation): inactive; negative
- mutagenic call (Test System: Ames Salmonella typhimurium, Strain/Indicator: TA100, Metabolic Activation: Rat, Liver, S-9, Aroclor 1254, Method: Preincubation): inactive; negative
- mutagenic call (Test System: Ames Salmonella typhimurium, Strain/Indicator: TA102, Metabolic Activation: None, Method: Preincubation): inactive; negative
- mutagenic call (Test System: Ames Salmonella typhimurium, Strain/Indicator: TA102, Metabolic Activation: Rat, Liver, S-9, Aroclor 1254, Method: Preincubation): inactive; negative
- mutagenic call (Test System: Ames Salmonella typhimurium, Strain/Indicator: TA1535, Metabolic Activation: None, Method: Preincubation): inactive; negative
- mutagenic call (Test System: Ames Salmonella typhimurium, Strain/Indicator: TA1535, Metabolic Activation: Rat, Liver, S-9, Aroclor 1254, Method: Preincubation): inactive; negative

SMILES: O=C(O)CCc1c[nH]c2ccccc12
- mutagenic call [8]: inactive; negative

SMILES: Clc1ccc2ccc3cccc4ccc1c2c34
- mutagenic call (Test System: AMES SALMONELLA TYPHIMURIUM, Strain/Indicator: TA98, Metabolic Activation: RAT, LIVER, S-9, AROCLOR 1254, Method: STANDARD PLATE): active; positive
- mutagenic call (Test System: AMES SALMONELLA TYPHIMURIUM, Strain/Indicator: TA100, Metabolic Activation: RAT, LIVER, S-9, AROCLOR 1254, Method: STANDARD PLATE): active; positive

SMILES: [Ag][I]
- mutagenic call (Test System: AMES SALMONELLA TYPHIMURIUM, Strain/Indicator: TA97, Metabolic Activation: NONE, Method: STANDARD PLATE): inactive; negative
- mutagenic call (Test System: AMES SALMONELLA TYPHIMURIUM, Strain/Indicator: TA97, Metabolic Activation: RAT LIVER S-9, AROCLOR 1254, Method: STANDARD PLATE): active; positive
- mutagenic call [13]: inactive; negative
- mutagenic call (Test System: AMES SALMONELLA TYPHIMURIUM, Strain/Indicator: TA98, Metabolic Activation: RAT LIVER S-9, AROCLOR 1254, Method: STANDARD PLATE): inactive; negative
- mutagenic call (Test System: AMES SALMONELLA TYPHIMURIUM, Strain/Indicator: TA102, Metabolic Activation: NONE, Method: STANDARD PLATE): active; positive
- mutagenic call (Test System: AMES SALMONELLA TYPHIMURIUM, Strain/Indicator: TA102, Metabolic Activation: RAT LIVER S-9, AROCLOR 1254, Method: STANDARD PLATE): inactive; negative
- mutagenic call (Test System: AMES SALMONELLA TYPHIMURIUM, Strain/Indicator: TA1535, Metabolic Activation: NONE, Method: STANDARD PLATE): inactive; negative
- mutagenic call (Test System: AMES SALMONELLA TYPHIMURIUM, Strain/Indicator: TA1535, Metabolic Activation: RAT LIVER S-9, AROCLOR 1254, Method: STANDARD PLATE): inactive; negative
